{"source": "patent US10245252B2", "about": "“Use of alkylamidothiazoles in cosmetic or dermatological preparations for the prophylaxis or treatment of sensitive skin” (BEIERSDORF AG, priority 2013, dated 2019)", "assay_type_in_all_cases": "cell-based", "key": {"human dermal fibroblasts": {"tested_on": "human dermal fibroblasts", "assay": "LPS-induced prostaglandin E2 formation in human dermal fibroblasts, ELISA of cell culture supernatant", "details": "incubation for 24 hours with LPS and increasing concentrations, FIG. 2, compared with diclofenac", "procedure": "(§1) In further experiments it was investigated whether the inhibition of the NFκB activation also actually reduces the subsequent secretion of pro-inflammatory mediators. By way of example, the results of two experiments are documented in the figures. By incubation of human dermal fibroblasts with lipopolysaccharides (LPS), the formation of the pro-inflammatory prostaglandin E2 was induced in the cells, and a specific ELISA was used to determine the concentration in the cell culture supernatant, following incubation for 24 hours with LPS and increasing concentrations of the substances according to the invention. […] In the next experiment, the release of interleukin 1β (IL-1β) from blood leukocytes following stimulation by LPS and simultaneous incubation (for 24 hours) with the substances according to the invention was measured. […] The anti-inflammatory activity level of the alkylamidothiazoles is thus that of recognized pharmacological standards, although higher concentrations of the substances according to the invention do have to be used."}, "blood leukocytes": {"tested_on": "blood leukocytes", "assay": "release of interleukin 1β from blood leukocytes following stimulation by LPS", "details": "FIG. 3", "procedure": "as §1"}, "NFκB": {"tested_on": "NFκB", "assay": "NFκB activity assay (commercial assay from Cell Culture Service GmbH), NFκB activated by TNF-alpha", "details": "NFκB activated by adding TNF-alpha; FIG. 1; very low concentrations", "text": "The nuclear factor kappa B (NFκB) is a master regulator of inflammation. The expression of many pro-inflammatory mediators (e.g. cytokines and chemokines) is controlled by NFκB. The inhibition of the activation of NFκB is therefore an important mechanism for minimizing inflammation processes. To measure the NFκB activity, a commercial assay from Cell Culture Service GmbH, Hamburg, was used. In this test, NFκB is activated by adding the pro-inflammatory mediator TNF-alpha. The addition of the alkylamidothiazoles according to the invention prevents the TNF-alpha effect in a dose-dependent manner."}}, "data": [{"smiles": "CC(C)C(=O)Nc1nc(-c2ccc(O)cc2O)cs1", "note": "[N-(4-(2,4-dihydroxyphenyl)thiazol-2-yl)isobutyramide]", "values": [{"measurement": "release of PGE2", "setting": "human dermal fibroblasts", "result": "very significantly reduces the release of PGE2 to a level which is comparable to the pharmacological standard diclofenac"}, {"measurement": "release of interleukin 1β (IL-1β)", "setting": "blood leukocytes; LPS stimulation and simultaneous incubation for 24 hours", "result": "very good anti-inflammatory effectiveness"}, {"measurement": "release of interleukin 1β (IL-1β), effectiveness relative to dexamethasone", "setting": "blood leukocytes; concentration of 16.67 μM, LPS, 24 hours", "result": "an effectiveness as for 500 ng of dexamethasone"}, {"measurement": "inhibition of the TNF-alpha-induced activation of NFκB", "setting": "NFκB", "result": "prevent the TNF-alpha-induced activation of NFκB"}]}]}
